Results on 20 compounds are retold here after patent US12649727B2, “EFGR inhibitor, preparation method therefor and application thereof” (Abbisko Therapeutics Co., Ltd, priority 2020, dated 2026).

pIC50: −log10 of the molar value.

Assay type in all cases: cell-based
In one assay the test system is A431 (EGFR-WT). The experiment in a line: Proliferation experiment, A431 cell line (CellTiter-Glo). Conditions: Homo sapiens, A-431; A431 cells, cultured for 72 hrs with compound, CTG analysis. The protocol:
[The procedure below names another cell line; the source lists this cell line under the same test.] (§1) Proliferation Experiment of Ba/F3 Cell Line
(§2) (I) Reagents and Materials
(§3) • Fetal bovine serum FBS (GBICO, Cat #10099-141); • CellTiter-Glo® luminescent cell viability assay kit (Promega, Cat #G7572); • Black transparent flat-bottom 96 well plate (Corning®, Cat #3603). (II) Instruments • SpectraMax multi-label microplate reader MD, 2104-0010A; • Carbon dioxide incubator, Thermo Scientific 3100 series; • Biological safety cabinet, Thermo Scientific, 1300 series model A2; • Inverted microscope, Olympus, CKX41SF; • Siemens refrigerator KK25E76TI. (III) Cell Lines and Culture Conditions
(§4) (IV) Experimental Procedures 1. Cell Culture and Inoculation: • (1) Cells in the logarithmic growth phase were harvested and counted using a […]. Cell viability was detected by Trypan Blue Dye Exclusion Method to ensure cell viability above 90%. • (2) The cell concentration was adjusted to reach a desired final density; 90 μL of cell suspension was added to the 96-well plate. • (3) The cells were incubated overnight in the 96-well plate at 37° C., 5% CO2 and at 95% humidity.
(§5) 2. T0 Reference Data: • (1) 10 μL PBS was added to each well of the TO plate containing the cells. • (2) The CTG reagent was thawed and the cell plate was equilibrated to room temperature for 30 min. • (3) An equal volume of CTG solution was added to each well. • (4) The cells were lysed by shaking on an orbital shaker for 5 min. • (5) The cell plate was left at room temperature for 20 min to stabilize the luminescence signal. • (6) The fluorescence signal values of TO were read. 3. Dilution and Addition of Compounds • (1) According to the compound information table, a corresponding volume of DMSO was added to the corresponding compound powder to prepare a 10 mM stock solution. • (2) A 1000-fold, 3.16-fold-diluted compound solution was prepared. • (3) The 1000× diluted compound solution was diluted 100-fold with PBS to prepare a 10-fold compound solution with a maximum concentration of […], including 9 concentrations, with 3.16-fold dilution, and 10 μL of the medicament solution was added to each well of the 96-well plate to seed the cells. Triplicate wells were set for each compound concentration, with a final concentration of DMSO being 0.1%. • (4) The cells were placed in the 96-well plate filled with the medicament at 37° C., 5% CO2 and at 95% humidity, and cultured for 72 hrs before CTG analysis. 4. Fluorescence Signal Reading • (1) The CTG reagent was thawed and the cell plate was equilibrated to room temperature for 30 min. • (2) An equal volume of CTG solution was added to each well. • (3) The cells were lysed by shaking on an orbital shaker for 5 min. • (4) The cell plate was left at room temperature for 20 min to stabilize the fluorescence signal. • (5) The fluorescence values were read. 5. Data Processing
(§6) Data were analyzed using GraphPad Prism 7.0 software and fitted data were regressed using non-linear S-curves to obtain dose-response curves from which IC50 values (in nM) were calculated.
For orientation: ATP-based viability assays read luminescence as a measure of living cells.

Assay [1] deals with Ba/F3 EGFR-D770-N771ins_SVD (Homo sapiens, UniProt P00533, DUP768-770, cells depend on it). Nature of the assay: Proliferation experiment of Ba/F3 cell line, EGFR-D770-N771ins_SVD (CellTiter-Glo). The conditions noted are these: cultured for 72 hrs with compound, CTG analysis, read-out: Ba/F3 EGFR-D770-N771ins_SVD IC50. On the procedure: as §1, §2, §3, §4, §5, §6
Chain of Ba/F3 EGFR-D770-N771ins_SVD (P00533 with tags, fused parts or gaps DUP768-770): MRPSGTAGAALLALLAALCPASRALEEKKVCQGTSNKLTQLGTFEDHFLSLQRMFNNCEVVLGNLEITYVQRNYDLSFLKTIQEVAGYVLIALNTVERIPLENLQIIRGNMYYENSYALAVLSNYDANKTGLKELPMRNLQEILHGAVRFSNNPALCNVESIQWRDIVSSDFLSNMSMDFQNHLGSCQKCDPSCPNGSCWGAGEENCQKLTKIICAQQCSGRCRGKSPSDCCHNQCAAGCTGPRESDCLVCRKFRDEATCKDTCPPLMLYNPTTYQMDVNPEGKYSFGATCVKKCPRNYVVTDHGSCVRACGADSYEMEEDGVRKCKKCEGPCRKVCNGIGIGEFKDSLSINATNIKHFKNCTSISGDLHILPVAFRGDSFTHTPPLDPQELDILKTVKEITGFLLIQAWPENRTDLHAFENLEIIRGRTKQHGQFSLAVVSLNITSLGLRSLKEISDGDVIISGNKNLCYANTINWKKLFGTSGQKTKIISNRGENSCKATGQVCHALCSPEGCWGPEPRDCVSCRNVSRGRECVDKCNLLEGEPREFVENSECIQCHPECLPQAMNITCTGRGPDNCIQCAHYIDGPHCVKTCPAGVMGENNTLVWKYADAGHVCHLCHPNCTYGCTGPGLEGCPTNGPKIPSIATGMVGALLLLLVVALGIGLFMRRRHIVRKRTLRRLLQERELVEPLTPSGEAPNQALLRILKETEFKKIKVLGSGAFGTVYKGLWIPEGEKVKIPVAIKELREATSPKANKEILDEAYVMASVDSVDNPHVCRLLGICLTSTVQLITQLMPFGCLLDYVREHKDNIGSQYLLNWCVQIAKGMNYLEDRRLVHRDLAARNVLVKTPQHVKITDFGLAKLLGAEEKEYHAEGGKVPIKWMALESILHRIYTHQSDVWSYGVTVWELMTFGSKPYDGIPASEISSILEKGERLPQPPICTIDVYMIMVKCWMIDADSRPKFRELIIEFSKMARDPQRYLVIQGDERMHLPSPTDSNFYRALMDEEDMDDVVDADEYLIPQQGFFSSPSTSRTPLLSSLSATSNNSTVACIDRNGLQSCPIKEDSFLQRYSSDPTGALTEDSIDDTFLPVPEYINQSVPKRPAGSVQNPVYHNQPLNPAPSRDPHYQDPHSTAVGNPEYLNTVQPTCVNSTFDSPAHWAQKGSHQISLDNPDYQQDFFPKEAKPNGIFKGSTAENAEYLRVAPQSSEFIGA
Assay [2] deals with Ba/F3 EGFR-V769_D770insASV (Homo sapiens, UniProt P00533, DUP767-769, cells depend on it). The experiment in a line: Proliferation experiment of Ba/F3 cell line, EGFR-V769_D770insASV (CellTiter-Glo). Conditions: cultured for 72 hrs with compound, CTG analysis, read-out: Ba/F3 EGFR-V769_D770insASV IC50. The protocol:
as §1, §2, §3, §4, §5, §6

Chain of Ba/F3 EGFR-V769_D770insASV (P00533 with tags, fused parts or gaps DUP767-769): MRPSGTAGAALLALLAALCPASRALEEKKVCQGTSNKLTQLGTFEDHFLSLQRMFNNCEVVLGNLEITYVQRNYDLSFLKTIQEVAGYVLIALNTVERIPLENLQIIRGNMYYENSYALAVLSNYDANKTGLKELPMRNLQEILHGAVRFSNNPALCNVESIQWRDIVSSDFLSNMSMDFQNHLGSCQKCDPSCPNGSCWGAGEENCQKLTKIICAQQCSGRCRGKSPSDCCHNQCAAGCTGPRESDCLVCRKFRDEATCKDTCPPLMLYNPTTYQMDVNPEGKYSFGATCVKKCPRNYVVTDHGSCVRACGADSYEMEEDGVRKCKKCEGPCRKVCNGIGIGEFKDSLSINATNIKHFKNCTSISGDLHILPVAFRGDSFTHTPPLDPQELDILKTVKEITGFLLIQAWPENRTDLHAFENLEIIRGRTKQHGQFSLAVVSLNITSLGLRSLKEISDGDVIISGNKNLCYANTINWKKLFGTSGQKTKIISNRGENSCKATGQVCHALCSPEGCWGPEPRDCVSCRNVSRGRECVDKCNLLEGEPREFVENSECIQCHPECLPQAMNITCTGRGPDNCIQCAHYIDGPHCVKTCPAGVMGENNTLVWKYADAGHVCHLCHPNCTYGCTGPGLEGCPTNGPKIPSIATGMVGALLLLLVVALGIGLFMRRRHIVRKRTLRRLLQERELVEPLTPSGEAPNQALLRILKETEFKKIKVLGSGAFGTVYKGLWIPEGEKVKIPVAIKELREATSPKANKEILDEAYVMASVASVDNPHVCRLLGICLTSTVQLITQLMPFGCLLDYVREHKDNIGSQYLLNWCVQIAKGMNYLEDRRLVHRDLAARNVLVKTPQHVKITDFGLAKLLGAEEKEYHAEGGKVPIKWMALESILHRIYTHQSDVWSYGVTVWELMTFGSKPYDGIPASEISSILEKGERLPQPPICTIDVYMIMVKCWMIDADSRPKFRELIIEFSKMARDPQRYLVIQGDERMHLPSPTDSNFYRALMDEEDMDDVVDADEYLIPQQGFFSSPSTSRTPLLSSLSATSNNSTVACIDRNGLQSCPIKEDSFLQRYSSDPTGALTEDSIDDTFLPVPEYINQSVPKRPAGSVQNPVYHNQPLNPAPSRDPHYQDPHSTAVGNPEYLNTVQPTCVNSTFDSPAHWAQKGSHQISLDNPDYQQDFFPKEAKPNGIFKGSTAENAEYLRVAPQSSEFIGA

The term pIC50 denotes the negative decadic logarithm of the IC50, by convention in mol/L. For the compound `C=CC(=O)Nc1cc2c(Nc3cccc(-c4ccc(F)cc4F)c3)ncnc2cc1OCCCN1CCOCC1` [Example 1, N-(4-((2′,4′-difluoro-[1,1′-biphenyl]-3-yl)amino)-7-(3-morpholinopropoxy)quinazolin-6-yl)acrylamide], in the assay with A431 (EGFR-WT), the pIC50 is 6.67. The GI50 in assay [1] worked out at 11.8 nM; in assay [2], 42.4 nM.

For `C=CC(=O)Nc1cc2c(Nc3cccc(-c4ccc(F)cc4F)c3)ncnc2cc1OCCN1CCOCC1` [Example 3, N-(4-((2′,4′-difluoro-[1,1′-biphenyl]-3-yl)amino)-7-(2-morpholinoethoxy)quinazolin-6-yl)acrylamide], the pIC50 with A431 (EGFR-WT) is 6.46. The GI50 in assay [1] was 38.5 nM; in assay [2], 117 nM.

Turning to `C=CC(=O)Nc1cc2c(Nc3cccc(-c4ccc(F)cc4F)c3)ncnc2cc1OCCN1CCN(C)CC1` [Example 4, N-(4-((2′,4′-difluoro-[1,1′-biphenyl]-3-yl)amino)-7-(2-(4-methylpiperazin-1-yl)ethoxy)quinazolin-6-yl)acrylamide], the GI50 in assay [1] was found to be 52.5 nM; in assay [2], 175 nM.

As to `C=CC(=O)Nc1cc2c(Nc3cccc(-c4c(F)cccc4F)c3)ncnc2cc1OCCCN1CCN(C)CC1` [Example 5, N-(4-((2′,6′-difluoro-[1,1′-biphenyl]-3-yl)amino)-7-(3-(4-methylpiperazin-1-yl)propoxy)quinazolin-6-yl)acrylamide], in the assay on A431 (EGFR-WT), the pIC50 was 6.65. In addition, the results for the GI50 in assay [1] and in assay [2] were 13 nM and 20.3 nM, respectively.

In the case of `C=CC(=O)Nc1cc2c(Nc3cccc(-c4ccc(F)cc4)c3)ncnc2cc1OCCCN1CCOCC1` [Example 6, N-(4-((4′-fluoro-[1,1′-biphenyl]-3-yl)amino)-7-(3-morpholinopropoxy)quinazolin-6-yl)acrylamide], in the assay with A431 (EGFR-WT), the pIC50 was 7.21. Also, the GI50 in assay [1] is 37.5 nM; in assay [2] it was 89 nM.

As to `C=CC(=O)Nc1cc2c(Nc3cccc(-c4ccc(F)cc4F)c3)ncnc2cc1OCCCN1CCN(C)CC1` [Example 7, N-(4-((2′,4′-difluoro-[1,1′-biphenyl]-3-yl)amino)-7-(3-(4-methylpiperazin-1-yl)propoxy)quinazolin-6-yl)acrylamide], the pIC50 in the assay with A431 (EGFR-WT) was 6.62. Moreover, the GI50 in assay [1] amounted to 25.2 nM; in assay [2], 28.4 nM.

As to `C=CC(=O)Nc1cc2c(Nc3cccc(-c4ccc(F)cc4F)c3)ncnc2cc1O[C@@H]1CCN(C)C1` [Example 8, (R)-N-(4-((2′,4′-difluoro-[1,1′-biphenyl]-3-yl)amino)-7-((1-methylpyrrolidin-3-yl)oxy)quinazolin-6-yl)acrylamide], in the assay on A431 (EGFR-WT), the pIC50 was 6.46. In addition, the GI50 turned out to be 88.8 nM in assay [1] and 178 nM in assay [2].

In the case of `C=CC(=O)Nc1cc2c(Nc3cc(-c4ccc(F)cc4F)ccc3F)ncnc2cc1OCCCN1CCOCC1` [Example 11, N-(7-(3-morpholinopropoxy)-4-((2′,4,4′-trifluoro-[1,1′-biphenyl]-3-yl)amino)quinazolin-6-yl)acrylamide], in the assay with A431 (EGFR-WT), the pIC50 was 6.32. Besides, the GI50 in assay [1] was 29.3 nM; in assay [2], 119 nM.

As for `C=CC(=O)Nc1cc2c(Nc3cccc(-c4ccc(F)cc4F)c3)ncnc2cc1OCCCN1CCC(F)(F)CC1` [Example 14, N-(4-((2′,4′-difluoro-[1,1′-biphenyl]-3-yl)amino)-7-(3-(4,4-difluoropiperidin-1-yl)propoxy)quinazolin-6-yl)acrylamide], the negative-log IC50 (pIC50) in the assay with A431 (EGFR-WT) was 6.44. For the same compound, the GI50 in assay [1] is 34.4 nM; in assay [2], 221 nM.

Regarding `C=CC(=O)Nc1cc2c(Nc3cccc(-c4ccc(F)cc4F)c3)ncnc2cc1OCCCN1CCC(F)(F)C1` [Example 15, N-(4-((2′,4′-difluoro-[1,1′-biphenyl]-3-yl)amino)-7-(3-(3,3-difluoropyrrolidin-1-yl)propoxy)quinazolin-6-yl)acrylamide], the pIC50 in the assay with A431 (EGFR-WT) is 6.30. Besides, the GI50 was 56.1 nM in assay [1] and 137 nM in assay [2].

On to `C=CC(=O)Nc1cc2c(Nc3cccc(-c4ncc(F)cc4F)c3)ncnc2cc1OCCCN1CCOCC1` [Example 17, N-(4-((3-(3,5-difluoropyridin-2-yl)phenyl)amino)-7-(3-morpholinopropoxy)quinazolin-6-yl)acrylamide], for which the negative-log IC50 (pIC50) in the assay with A431 (EGFR-WT) is 6.29. The GI50 turned out to be 26.1 nM in assay [1] and 90.9 nM in assay [2].

`C=CC(=O)Nc1cc2c(Nc3cccc(-c4ccc(F)cc4F)c3)ncnc2cc1OCCN1CCC(F)(F)C1` [Example 19, N-(4-((2′,4′-difluoro-[1,1′-biphenyl]-3-yl)amino)-7-(2-(3,3-difluoropyrrolidin-1-yl)ethoxy)quinazolin-6-yl)acrylamide]: in the assay on A431 (EGFR-WT), the pIC50 was 6.22. For the same compound, the GI50 in assay [1] came to 70.5 nM; in assay [2], 177 nM.

Regarding `C=CC(=O)Nc1cc2c(Nc3cc(-c4ccc(F)cc4F)ccc3F)ncnc2cc1OCCCN1CCN(C)CC1` [Example 20, N-(7-(3-(4-methylpiperazin-1-yl)propoxy)-4-((2′,4,4′-trifluoro-[1,1′-biphenyl]-3-yl)amino)quinazolin-6-yl)acrylamide], in the assay with A431 (EGFR-WT), the pIC50 was 6.60. The GI50 is 36.5 nM in assay [1] and 53.9 nM in assay [2].

In the case of `C=CC(=O)Nc1cc2c(Nc3cccc(-c4ccc(F)cc4F)c3)ncnc2cc1OCCN1CCC(F)(F)CC1` [Example 21, N-(4-((2′,4′-difluoro-[1,1′-biphenyl]-3-yl)amino)-7-(2-(4,4-difluoropiperidin-1-yl)ethoxy)quinazolin-6-yl)acrylamide], the pIC50 in the assay on A431 (EGFR-WT) is 6.02. Moreover, the GI50 came out at 104 nM in assay [1] and 240 nM in assay [2].

Turning to `C=CC(=O)Nc1cc2c(Nc3cccc(-c4c(F)cc(F)cc4F)c3)ncnc2cc1OCCN1CCOCC1` [Example 24, N-(7-(2-morpholinoethoxy)-4-((2′,4′,6′-trifluoro-[1,1′-biphenyl]-3-yl)amino)quinazolin-6-yl)acrylamide], the pIC50 in the assay on A431 (EGFR-WT) is 6.42. In addition, the GI50 in assay [1] was found to be 46.2 nM.

As for `C=CC(=O)Nc1cc2c(Nc3cccc(-n4cccn4)c3)ncnc2cc1OCCN1CCOCC1` [Example 51, N-(4-((3-(1H-pyrazol-1-yl)phenyl)amino)-7-(2-morpholinoethoxy)quinazolin-6-yl)acrylamide], the figures for the GI50 in assay [1] and in assay [2] were 40.6 nM and 89.9 nM, respectively.

Consider `C=CC(=O)Nc1cc2c(Nc3cccc(-n4cccn4)c3)ncnc2cc1OCCCN1CCOCC1` [Example 52, N-(4-((3-(1H-pyrazol-1-yl)phenyl)amino)-7-(3-morpholinopropoxy)quinazolin-6-yl)acrylamide], for which the GI50 in assay [1] stood at 10.4 nM; in assay [2] it was 17.9 nM.

Regarding `C=CC(=O)Nc1cc2c(Nc3cccc(-n4nccn4)c3)ncnc2cc1OCCN1CCOCC1` [Example 54, N-(4-((3-(2H-1,2,3-triazol-2-yl)phenyl)amino)-7-(2-morpholinoethoxy)quinazolin-6-yl)acrylamide], the GI50 amounted to 67.9 nM in assay [1] and 107 nM in assay [2].

Regarding `C=CC(=O)Nc1cc2c(Nc3cccc(-n4nccn4)c3)ncnc2cc1OCCCN1CCOCC1` [Example 55, N-(4-((3-(2H-1,2,3-triazol-2-yl)phenyl)amino)-7-(3-morpholinopropoxy)quinazolin-6-yl)acrylamide], the figures for the GI50 in assay [1] and in assay [2] were 15 nM and 34.6 nM, respectively.

For `C=C(F)C(=O)Nc1cc2c(Nc3ccnc(-c4ccccc4F)c3)ncnc2cc1N1CC(F)(F)C1` [Example 107, N-(7-(3,3-difluoroazetidin-1-yl)-4-((2-(2-fluorophenyl)pyridin-4-yl)amino)quinazolin-6-yl)-2-fluoroacrylamide], the pIC50 in the assay with A431 (EGFR-WT) is 5.60. In addition, the GI50 in assay [1] was determined as 18.3 nM.
